The values below come from patent EP2114888B1, “TRICYCLIC COMPOUNDS AND THEIR USE AS GLUCOCORTICOID RECEPTOR MODULATORS” (priority 2007, dated 2008).

Data set [1] has as its system Mouse Collagen-induced arthritis (mCIA). As to the kind of experiment: Traditional mouse collagen-induced arthritis (mCIA) model. The data set is classed as in vivo, male DBA/J mice. To be noted: mice. On the procedure:
Mouse Collagen-induced arthritis is a commonly used chronic, preclinical model of rheumatoid arthritis in which joint swelling and bone destruction occur following immunization with type II collagen. Reduction of disease incidence and severity has been shown previously to be predictive of disease-modification and signs and symptoms mitigation, respectively, in a clinical setting.
In the traditional mCIA model, male DBA/J mice were immunized with 50 µg chick type II collagen (cCII) in complete Freund's adjuvant and then boosted 21 days later with 50 µg cCII in incomplete Freund's adjuvant. Treatment with compounds was initiated on the morning of the boost and continued for 56 days. The effectiveness of treatment was measured by disease incidence (i.e., number of mice showing any sign of disease) and disease severity, both of which were measured twice a week.

The test system of a further data set is osteocalcin. As to the kind of experiment: Serum osteocalcin suppression, 28-day repeat dose mouse model. To be noted: in vivo. The method, then: (§1) The compounds were weighed and suspended in a vehicle of 0.5% methylcellulose/0.025% tween 20 (Sigma-Aldrich, St. Louis, MO). Compound suspensions were homogenized using a Polytron PT-3100 tissue homogenizer to create a very fine suspension and were then sonicated for 10 minutes using a water bath sonicator. Aliquots of each suspension were made for daily dosing at 0.2 ml/dose. Swiss Webster female mice, 10-12 weeks old, 28-29 grams, (Taconic, Germantown, NY) were used in accordance with the guidelines of the Institutional Animal Care and Use Committee and in accordance with NIH guidelines on laboratory animal welfare. Mice were acclimated in the Pfizer animal facility for three to seven days prior to being utilized in a study. […] Each treatment group contained 5-10 mice. To establish a dosing regimen for the studies, a pilot pharmacodynamic time course experiment was conducted to quantify TNFα repression after a single ED80 dose.
(§2) Body weights were measured on the first and last day of each experiment. Blood samples were obtained after three weeks of dosing for a steady-state pharmacokinetic (PK) analysis. To assess compound effects on LPS-induced TNFα, all mice received an intraperitoneal injection of LPS (Salmonella typhosa, L-7895; Sigma-Aldrich, St. Louis,) 2.5 hr after the last dose on day 28. Mice were sacrificed 90 minutes after LPS administration. Serum samples were quantified for osteocalcin and TNFα using the multiplex assays (Linco Research, Inc, St. Charles, MO; Luminex 100, Austin, TX). Samples were diluted 1:20 and the assay was run according to manufacturer's instructions. The osteocalcin standard was purchased separately (Biomedical Technologies Inc., Stoughton, MA). Mice were fasted for 4 hours before serum was collected for TNFα, and osteocalcin levels. For each experiment, outliers were detected by calculating the number of standard deviations from the mean of the group. If the value being examined was more than 2.5 standard deviations from the mean, it was excluded from the rest of the calculations.
(§3) The individual mouse percent inhibition values were fit to a four-parameter logistic model using the dose mean for each group.
(§4) ED50 and ED80 values were obtained for the various endpoints using a four-parameter logistic fit. For compounds which were tested multiple times, ED50 and ED80 values were obtained using four-parameter logistic fits of the combined data from multiple experiments.

Experiment in data set [2]: as above
To be noted: in vivo, po. On the procedure: as §1, §2, §3, §4

Data set [3] concerns Mouse Collagen-induced arthritis (mCIA). As to the kind of experiment: Therapeutic mouse collagen-induced arthritis (mCIA) model. Type of data set: in vivo, Male DBA/J mice. An excerpt: Mouse Collagen-induced arthritis is a commonly used chronic, preclinical model of rheumatoid arthritis in which joint swelling and bone destruction occur following immunization with type II collagen. Reduction of disease incidence and severity has been shown previously to be predictive of disease-modification and signs and symptoms mitigation, respectively, in a clinical setting. In the therapeutic mCIA model, induction of disease incidence and severity was synchronized via LPS stimulation. Male DBA/J mice were immunized with 100 ug of bovine type II collagen (bCII) on day 0. […] Dosing of compounds was initiated in the therapeutic mode on day 34 and continued through day 49. Different treatments were compared by measuring the decrease in incidence (i.e., resolution of disease) and the decrease in severity of paw swelling over time.

One may read the ED50 as the dose at which the effect has come halfway, by size or by number of responders. With `Cc1ncccc1NC(=O)c1ccc2c(c1)CC[C@@H]1C[C@@](O)(C(F)(F)F)CC[C@@]21Cc1ccccc1` [Example 1, (4βS,7R,8αR)-4β-benzyl-7-hydroxy-N-(2-methylpyridin-3-yl)-7-(trifluoromethyl)-4β,5,6,7,8,8α,9,10-octahydrophenanthrene-2-carboxamide], in data set [1], the “Disease incidence (traditional mCIA) EAUC50 (AUC 0-4 hr)” value worked out at 0.04 µg·h/mL and the “Disease incidence (traditional mCIA) EAUC80 (AUC 0-4 hr)” value amounted to 0.10 µg·h/mL. Besides, in the data set on osteocalcin, the “Serum osteocalcin EAUC50 (AUC 0-4 hr)” value is 1.30 µg·h/mL and the “Serum osteocalcin EAUC80 (AUC 0-4 hr)” value is 4.20 µg·h/mL. Further, in the data set with osteocalcin (po), the “Osteocalcin Suppression (ED80 dose)” value was more than 10 mg/kg. Moreover, in data set [2], the ED50 is 2.91 mg/kg. Moreover, in data set [3] (Mus musculus, dosing day 34 through day 49, read-out: Therapeutic mCIA (ED80 dose)), the ED80 turned out to be 1.5 mg/kg. Besides, in data set [3] (dosing day 34 through day 49, listed as Example 1 free base), the “Therapeutic mCIA (ED50 dose)” value was found to be 0.4 mg/kg. In data set [3] (mice), the “Disease severity (therapeutic mCIA) EAUC50 (AUC 0-4 hr)” value turned out to be 0.09 µg·h/mL and the “Disease severity (therapeutic mCIA) EAUC80 (AUC 0-4 hr)” value stood at 0.19 µg·h/mL.
